Drawing on BindingDB's records for doi:10.1016/s0968-0896(01)00282-6 (Purdue University, 2002), this text covers IC50 for twelve compounds.

SMILES strings stand for the structures. pIC50: −log10 of the molar value.

The target in this assay is T1, Gag-Pol polyprotein [588-1027]/[588-1147] (Human immunodeficiency virus 1, UniProt P04585).
T1 construct: 588-1027; 588-1147
Put plainly: HIV-1 RT Assay. The following applies: pH 7.9.
One may read the pIC50 as the negative decadic logarithm of the IC50, by convention in mol/L. Compound `COC(=O)CCC/C=C(/c1cc(C)c(OC)c(C(=O)OC)c1)c1cc(Cl)c(OC)c(C(=O)OC)c1` [Alkenyldiarylmethane (ADAM) 4b] showed a pIC50 of 6.29.
The value for `COC(=O)CCC/C=C(/c1ccc(OC)c(C(=O)OC)c1)c1cc(Cl)c(OC)c(C(=O)OC)c1` [Alkenyldiarylmethane (ADAM) 5b] was 6.23; that for `COC(=O)CCCC=C(c1ccc(OC)c(Cl)c1)c1ccc(OC)c(Cl)c1` [Alkenyldiarylmethane (ADAM) 9b] was 4.00; that for `COC(=O)CCC/C=C\c1cc(C)c(OC)c(C(=O)OC)c1` [Alkenyldiarylmethane (ADAM) 10b] was 4.05.
The value for `COC(=O)CCCCC(=O)c1cc(C)c(OC)c(C(=O)OC)c1` [Methyl 6-[4-methoxy-5-(methoxycarbonyl)-3-methylphenyl]-6-oxohexanoate] was 4.00.
Take `COC(=O)CCCCCc1cc(C)c(OC)c(C(=O)OC)c1` [Methyl 6-[4-methoxy-5-(methoxycarbonyl)-3-methylphenyl]hexanoate]: the pIC50 is 5.76.
The value for `COC(=O)CCC/C=C(/c1ccc(OC)c(OC)c1)c1cc(C)c(OC)c(C(=O)OC)c1` [Methyl (5Z)-6-(3,4-dimethoxyphenyl)-6-[4-methoxy-3-(methoxycarbonyl)-5-methylphenyl]hex-5-enoate] was 7.13; that for `COC(=O)CCCC#Cc1cc(C)c(OC)c(C(=O)OC)c1` [methyl 2-methoxy-5-(6-methoxy-6-oxohex-1-yn-1-yl)-3-methylbenzoate] was 4.00; that for `COC(=O)CCC/C=C/c1cc(C)c(OC)c(C(=O)OC)c1` [methyl 2-methoxy-5-[(1E)-6-methoxy-6-oxohex-1-en-1-yl]-3-methylbenzoate] was 4.00.
The value for `COC(=O)CCCC=C(c1ccc(OC)c(C(=O)OC)c1)c1ccc(OC)c(C(=O)OC)c1` [methyl 2-methoxy-5-{6-methoxy-1-[4-methoxy-3-(methoxycarbonyl)phenyl]-6-oxohex-1-en-1-yl}benzoate] was 6.30; that for `COC(=O)CCC/C(=C\c1ccc(OC)c(Cl)c1)c1ccc(OC)c(Cl)c1` [methyl (5E)-5,6-bis(3-chloro-4-methoxyphenyl)hex-5-enoate] was 4.00.
For the compound `COC(=O)CCC/C=C(/c1ccc(OC)c(OC)c1)c1cnccn1` [methyl (5Z)-6-(3,4-dimethoxyphenyl)-6-(pyrazin-2-yl)hex-5-enoate], the pIC50 is 4.00.
